The record followed here is patent US20210238170A1, “5,5-Difluoro- and 5-Fluoro-5-Methyl-C-Glycoside Derivatives Useful As Dual SGLT1 / SGLT2 Modulators” (Janssen Pharmaceutica NV, priority 2018, published 2021).

One experiment concerns SD rats. Description: Oral Glucose Tolerance Test (OGTT) in SD rats: blood glucose excursion AUC and urine glucose excretion. It is filed as in vivo, rat. As to conditions: mean ± SE; for response vs control in vivo at 1 mg/kg / response vs control in vivo at 10 mg/kg: Rattus norvegicus, 2 h, n = 8, read-out: 120-min Blood Glucose AUC vs Vehicle (%); for Urine Glucose Excretion (g/0-4 hr): n = 8. The procedure: Biological Example 2: In Vivo Assay
Oral Glucose Tolerance Test (OGTT) in SD Rats
Overnight fasted SD rats were allocated into vehicle or test compound treatment groups based on their body weights (n=8 in each group). The animals were orally dosed with vehicle or test compound at a volume of 10 ml/kg at 30-minute prior to OGTT. The animals then received an OGTT challenge with 2 g/kg (50% glucose solution at the volume of 4 ml/kg, orally). The animals were immediately transferred into metabolic cages after they were dosed with the glucose. Blood glucose levels were measured at 0 (pre-OGTT), 30, 60, and 120 minutes after OGTT using one-touch Glucometer. Blood glucose excursion AUC (area under the curve of blood glucose) was determined from the blood glucose levels measured at the timepoints.
Table 9 below, presents the measured efficacy of the test compound(s), expressed as the percentage (%) of blood glucose AUC vs that in vehicle group. The data is interpreted such that, the smaller the percentage of blood glucose AUC of compound vs vehicle, the greater the efficacy of the test compound. Urine volume and urine glucose concentrations (tested by using Olympus system with Genzyme diagnostics assay reagent) were measured to determine the urine glucose excretion (UGE) in 4-hr period after OGTT (0-4 hours).

A further experiment concerns the target T1, human SGLT1 (Homo sapiens, UniProt P13866).
T1 construct: expressed in transfected cells
T1 sequence (P13866 1-664): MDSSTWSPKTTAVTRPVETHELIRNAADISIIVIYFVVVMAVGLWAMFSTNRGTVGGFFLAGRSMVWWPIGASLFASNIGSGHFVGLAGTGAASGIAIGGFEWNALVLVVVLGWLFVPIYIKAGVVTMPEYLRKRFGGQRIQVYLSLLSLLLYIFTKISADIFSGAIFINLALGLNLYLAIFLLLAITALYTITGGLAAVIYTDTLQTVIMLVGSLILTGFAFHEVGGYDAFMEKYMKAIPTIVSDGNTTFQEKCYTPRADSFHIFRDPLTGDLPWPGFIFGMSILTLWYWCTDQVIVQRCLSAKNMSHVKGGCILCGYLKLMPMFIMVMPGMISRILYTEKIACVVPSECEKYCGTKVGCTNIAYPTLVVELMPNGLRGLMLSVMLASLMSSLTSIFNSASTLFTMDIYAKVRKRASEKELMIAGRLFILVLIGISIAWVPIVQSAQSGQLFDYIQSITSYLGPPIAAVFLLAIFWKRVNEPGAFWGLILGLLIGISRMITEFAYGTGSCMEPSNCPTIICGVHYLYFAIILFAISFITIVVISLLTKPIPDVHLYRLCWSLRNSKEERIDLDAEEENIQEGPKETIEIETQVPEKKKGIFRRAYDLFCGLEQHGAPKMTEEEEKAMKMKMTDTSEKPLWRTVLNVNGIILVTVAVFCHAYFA
Description: SGLT1 in vitro assay: Na-dependent 14C-AMG uptake in CHO-K1 cells stably expressing human SGLT1. It is filed as cell-based. The following applies: CHO-K1 cells stably expressing human SGLT1, 14C-AMG uptake; for inhibition at 0.3 µM: read-out: SGLT1 % Inh @ 0.3 μM; for IC50: compounds of formula (I) where R0 is fluoro. The procedure, abridged:
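Sodium-dependent uptake of 14C-α-methyl-glucopyranoside ([…]) over 2 h at 37°C was counted by scintillation in stable human SGLT2- or SGLT1-CHO-K1 lines pretreated with 10 mM Na-butyrate. Compounds at 0.001–10 μM were preincubated for 10 min in pH 7.4 buffer with 137 mM NaCl; output is %-inhibition or IC50.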

The subject of a further experiment is db/db mice. The experiment is described as follows: SGLT inhibition evaluated in db/db mice: fed blood glucose AUC and 24-hr urine glucose excretion. The class given is in vivo, mouse. As to conditions: oral dose 10 mg/kg, mean ± SE, n = 8; for 24-hr Blood Glucose AUC vs Vehicle (%): fed. How it is done: Biological Example 3: In Vivo Assay
SGLT Inhibition Evaluated in db/db Mice
Based on fed blood glucose levels, db/db mice were allocated into either vehicle or test compound treated groups (n=8 in each group). After grouped, the mice were orally dosed with either vehicle or test compound at 0 and 10 mg/kg, in a volume of 10 ml/kg. The mice were then immediately transferred into mouse metabolic cages, after they were dosed. Fed blood glucose levels were determined at multiple timepoints after the animals were treated. Fed blood glucose AUC (area under the curve of blood glucose) was determined from the blood glucose levels measured at the timepoints.
Table 10 below, presents the measured efficacy of the test compound(s), expressed as a percentage (%) of blood glucose AUC vs that in vehicle group. The data is interpreted such that, the smaller the percentage of blood glucose AUC of compound vs vehicle, the greater efficacy of the test compound. Total urine glucose excretion (UGE) over the 24-hr period post treatment was calculated based on urine glucose concentrations and urine volumes at multiple timepoints. Urine glucose was measured using Olympus system with Genzyme diagnostics assay reagent.

In general, IC50 refers to the concentration that inhibits the measured activity by half. A high value points to weaker potency in that assay. On to `COc1ccc(Cc2cc([C@@H]3O[C@H](CO)C(F)(F)[C@H](O)[C@H]3O)c(O)cc2Cl)cc1` [Compound 81, (2S,3R,4R,6R)-2-(4-chloro-2-hydroxy-5-(4-methoxybenzyl)phenyl)-5,5-difluoro-6-(hydroxymethyl)-tetrahydro-2H-pyran-3,4-diol], for which, in the experiment with SD rats (oral dose 1 mg/kg), the response vs control in vivo at 1 mg/kg came to 77.5 ± 2.4% and the “Urine Glucose Excretion (g/0-4 hr)” value turned out to be 0.099 ± 0.037 g/0-4 hr. In the experiment with SD rats (oral dose 10 mg/kg), the response vs control in vivo at 10 mg/kg is 41 ± 2.7% and the “Urine Glucose Excretion (g/0-4 hr)” value worked out at 0.276 ± 0.032 g/0-4 hr. In addition, at human SGLT1, the inhibition at 0.3 µM came to 76.6% and the IC50 came out at 34 nM. Moreover, the “24-hr Blood Glucose AUC vs Vehicle (%)” value in the experiment with db/db mice amounted to 55.0 ± 4.6%.
`COc1cc(O)c([C@@H]2O[C@H](CO)C(F)(F)[C@H](O)[C@H]2O)cc1Cc1ccc2c(c1)CCCO2` [Compound 44, (2S,3R,4R,6R)-2-(5-(chroman-6-ylmethyl)-2-hydroxy-4-methoxyphenyl)-5,5-difluoro-6-(hydroxymethyl)tetrahydro-2H-pyran-3,4-diol]: in the experiment with SD rats (oral dose 1 mg/kg), the response vs control in vivo at 1 mg/kg stood at 61.7 ± 2.1% and the “Urine Glucose Excretion (g/0-4 hr)” value is recorded as 0.002 ± 0.001 g/0-4 hr. In the experiment with SD rats (oral dose 10 mg/kg), the response vs control in vivo at 10 mg/kg was determined as 39.3 ± 1.7% and the “Urine Glucose Excretion (g/0-4 hr)” value was 0.2 ± 0.02 g/0-4 hr. For the same compound, at human SGLT1, the inhibition at 0.3 µM was found to be 56.2% and the midpoint of inhibition, the IC50, lay at 96 nM. For the same compound, in the experiment with db/db mice, the “24-hr Blood Glucose AUC vs Vehicle (%)” value stood at 48.4 ± 3.4% and the “Urine Glucose Excretion (g/24 hr)” value is 0.55 ± 0.12 g/24 hr.
